Source: patent publication US12540112B2, “Crystal form I of curcumin derivative, preparation method therefor and application thereof” (WENZHOU MEDICAL UNIVERSITY, priority 2019, dated 2026)
Values joined by “and” are separate entries in the source; they are usually repeats but may differ in a detail not shown here. Identical values can stand only once. “Also recorded” adds a separate entry of the source.

Tests used:
Format in all cases: physicochemical
[1] = Fluidity test: angle of repose measurement
Procedure: (1) Angle of Repose Measurement
An iron stand configured to measure the angle of repose is placed in a horizontal position, a funnel is fixed on the iron stand, and a plastic receiving container is placed directly under the funnel. The crystal form I is added to the funnel to make the material flow down slowly from the funnel to form a cone shape. The height of the bottom of the funnel and the top of the flowed-down material is maintained at a height of about 2-4 cm. The measurement is repeated 5 times to calculate the average value.

[2] = Fluidity test: bulk density and tap density determination
Procedure: (2) Bulk Density and Tap Density Determination
The crystal form I is added to a measuring cylinder, and the weight and volume of the material added are calculated. A densitometer is used to tap and record the volume of the material after tapping.

[3] = Moisture absorption determination according to the Pharmacopoeia
Procedure: In this embodiment, the moisture absorption of crystal form I is investigated according to the Pharmacopoeia, and the details are as follows: • (1) 2 dry glass weighing bottles with stoppers (outer diameter of 50 mm, height of 30 mm) are taken and placed in a desiccator where a saturated solution of ammonium chloride is placed in a lower part. The weighing bottles are placed with open lips, the lid of the desiccator is closed, and the desiccator is placed in a constant temperature room at 25° C. and left overnight. • (2) after left overnight, the weighing bottles are taken out and accurately weighted, results of which are m1 1 and m1 2 respectively. • (3) an appropriate amount of the API sample is taken and laid flat in a weighed weighing bottle (the thickness of the sample is about 1 mm), and accurately weighted, results of which are m2 1 and m2 2 respectively. • (4) the weighing bottles are placed with open lips and placed with the bottle caps in the desiccator with the saturated solution of ammonium chloride in the lower part, the lid of the desiccator is closed, and the desiccator is placed in a thermostat at 25° C. for 24 hours. • (5) after leaving for 24 hours, the weighing bottles are capped and accurately weighted, results of which are m3 1 and m3 2 respectively. • (6) the calculation formula for moisture absorption weight gain is as follows: Weight gain percentage=100%×(m3−m2)/(m2−m1)

[4] = Two-week solid-state stability determination (XRPD and HPLC); settings: 2 weeks; for Purity after storage: HPLC, initial purity 99.72%; for Stability of crystalline shape: XRPD
Excerpt: […] Samples are taken after 2 weeks to test the stability of the samples by XRPD and HPLC.

## O=C1/C(=C/c2ccccc2C(F)(F)F)CCC/C1=C\c1ccccc1C(F)(F)F [crystal form I]
[1]; average of 5 repeated measurements
  angle of repose, Average value: 41.80 °
[1]; judgement in words
  fluidity: good fluidity; also recorded: acceptable
[1]; single measurements 1 to 5, funnel method
  angle of repose: 41.30° and 40.86° and 42.93° and 41.87° and 42.02°
[2]; (tap density − bulk density)/tap density × 100
  Carr index: 21.60
[2]; M 29.85 g, V 44.0 mL
  ρ (bulk density): 0.678 g/mL
[2]; M 29.85 g, V-tapped 34.5 mL
  ρ-tapped (tap density): 0.865 g/mL
[2]; judgement in words
  fluidity (from Carr index): good fluidity
[3]; 25° C., saturated ammonium chloride solution desiccator, 24 hours, average of 2
  Weight gain percentage, Average value: 0.16%
[3]; 25° C., saturated ammonium chloride solution desiccator, 24 hours, listed as C66-HC-006-13-06
  Weight gain percentage (moisture absorption): 0.17% and 0.15%
[3]; judgement in words
  moisture absorption: no or almost no moisture absorption
[4]; 25° C./60% RH/60% RH
  Purity after storage: 99.70%
  Stability of crystalline shape: YES
[4]; 25° C./92.5% RH
  Purity after storage: 99.72%
  Stability of crystalline shape: YES
[4]; 40° C./75% RH
  Purity after storage: 99.70%
  Stability of crystalline shape: YES
[4]; 60° C./75% RH
  Purity after storage: 99.68%
  Stability of crystalline shape: YES
[4]; all storage conditions
  change of purity on storage: does not change significantly
  stability of crystal form: remains stable
